Consider 7 molecules from US7632683B2, “Method, apparatus, reagent kit and reagent for distinguishing erythrocytes in a biological specimen” (Sysmex Corporation, priority 2004, dated 2009).

The test relates to yeast-like fungi (C. glabrata). The test can be described thus: Flow cytometry of urine specimen spiked with yeast-like fungi: fluorescence stainability of the fungi. The settings on record: for Fluorescence intensity: average fluorescence signal of yeast-like fungi in human urine without erythrocytes, substance at 1.0 wt % in diluting liquid in place of 2-phenoxyethanol, relative values on scale 0-255. The test is classed as cell-based. On the procedure: A staining liquid was used which was obtained by dissolving a fluorescent dye represented by the following formula in ethylene glycol so that the final concentration in the sample for analysis would be 6 ppm.
In the step S1, the sample preparing section 200 is controlled to execute the preparation of a sample for analysis. The operation of the sample preparing section 200 in the step S1 will be described with reference to FIG. 5. First, the dispensing device 224 sucks 522 μL of a diluting liquid from the sample container 231 of the reagent setting section 222, and then sucks 180 µL of a specimen (human urine) from the specimen container 225 that is set in the specimen setting section 221. The dispensing device 224 then dispenses the sucked diluting liquid and specimen to the reaction vessel 226 that is set in the incubator 223. Next, the dispensing device 224 sucks 18 μL of a staining liquid from the reagent container 227 of the reagent setting section 222, and dispenses the staining liquid to the reaction vessel 226. Thereafter, the incubator 223 stirs the mixture for 10 seconds to stain the diluted specimen while keeping the liquid temperature within the reaction vessel 226 containing the specimen, diluting liquid, and staining liquid to be 35 °C. The sample liquid for analysis thus prepared is sucked by the dispensing device 224, and is supplied to the sample container 233. The sample liquid for analysis supplied to the sample container 233 is let to flow through the flow cell 301 of the detecting section 300.
In the step S2, the detecting section 300 is controlled to detect signals reflecting the characteristics of each particle from the particles in the sample liquid for analysis. The operation of the detecting section 300 in the step S2 will be described with reference to FIG. 6. When the sample liquid is supplied to the sample container 233 as described above, the sample liquid is guided to the nozzle 303 by the operation of pumps and valves (not illustrated). Then, the sample liquid is ejected from the nozzle 303 to the flow cell 301. Simultaneously with this, a sheath liquid is supplied to the flow cell 301 from a sheath liquid container (not illustrated) via a sheath liquid inlet 304. By this, the sample liquid is surrounded by the sheath liquid in the flow cell 301, and is further narrowed down at by the orifice section 302 to flow. By narrowing the flow of the sample liquid, the particles such as erythrocytes and bacteria contained in the sample liquid are arranged in one line to flow through the orifice section 302. A laser beam emitted from the laser light source 306 is condensed by the condenser lens 307 and is radiated to the sample liquid that is flowing through the orifice section 302. The forward scattered light emitted from a particle in the sample liquid irradiated with the laser beam is condensed by the collector lens 309. Then the forward scattered light that has passed through the pinhole 310 is received and subjected to photoelectric conversion by the photodiode 308 to become a pulse-like forward scattered light signal. The fluorescence emitted from the particle in the sample liquid irradiated with the laser beam is condensed by the collector lens 312. Then the fluorescence that has passed through the filter 313 and the pinhole 314 is received and subjected to photoelectric conversion by the photomultiplier tube 311 to become a pulse-like fluorescence signal. The forward scattered light signal and the fluorescence signal are amplified respectively by the amplifiers 315, 316 and are sent to the controlling section 400.
First, the forward scattered light signal and the fluorescence signal detected by the detecting section are input into the signal processing circuit 403.
Background: In flow cytometry, cells or beads pass a laser one at a time.

As to `Oc1ccccc1` [Phenol], the Fluorescence intensity is on record as 55.

`CC(=O)Oc1ccccc1` [Phenyl acetate] registered a Fluorescence intensity of 82. As for `OCCOc1ccccc1` [2-phenoxyethanol], where the note is “human urine with erythrocytes plus C. glabrata, diluting liquid with 2-phenoxyethanol 7.5 g/l, pH 7.0 (Example 1) versus without (Example 2)”, the “Fluorescence intensity of yeast-like fungi compared with erythrocytes (two-dimensional scattergram)” value was “larger fluorescence intensity than the erythrocytes”. For the molecule `OCCc1ccccc1` [β-phenethyl alcohol], the Fluorescence intensity stood at 84. Still for that read-out and setting: the result for `OCc1ccccc1` [Benzyl alcohol] reads 73; that for `c1ccc2scnc2c1` [Benzothiazole], 92; that for `CC(O)COc1ccccc1` (stereo not shown) [1-phenoxy-2-propanol], 103.
